Measured values taken from article PMC8041284, “Tunable Methacrylamides for Covalent Ligand Directed Release Chemistry” (Journal of the American Chemical Society, 2021).
Like-named read-outs stand apart in the source and are kept apart here.

Target: BTK (Homo sapiens, UniProt Q06187)
Experiment: biochemical
[1] = read-out: BTK inhibition (%), 0.75 uM BTK, […] probe 3l, 15 min preincubation

BTK, sequence (Q06187 402-655 limits assumed): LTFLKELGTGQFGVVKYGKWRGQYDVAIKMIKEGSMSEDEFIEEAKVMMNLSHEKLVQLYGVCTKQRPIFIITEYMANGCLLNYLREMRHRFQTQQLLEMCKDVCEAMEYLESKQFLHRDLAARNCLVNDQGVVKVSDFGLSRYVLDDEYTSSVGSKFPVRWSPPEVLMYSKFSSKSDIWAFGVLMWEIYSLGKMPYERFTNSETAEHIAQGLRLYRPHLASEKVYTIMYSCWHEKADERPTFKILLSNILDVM

Row | SMILES | inhibition at 10 µM [1] [%] | inhibition at 10 µM (read-out: BTK inhibition (%)) [%]
1 | C[C@]12C=CC(=O)N[C@@H]1CC[C@@H]1[C@@H]2CC[C@]2(C)[C@@H](C(=O)Nc3cc(C(F)(F)F)ccc3C(F)(F)F)CC[C@@H]12 [PCM-0214606] | -4.7 | –
2 | COc1ccc(CCC(=O)c2c(O)cc(O[C@@H]3O[C@H](CO)[C@@H](O)[C@H](O)[C@H]3O[C@@H]3O[C@@H](C)[C@H](O)[C@@H](O)[C@H]3O)cc2O)cc1O [PCM-0094869] | 9.3 | –
3 | N#CC1(c2ccc(NC(=O)c3cccnc3NCc3ccncc3)cc2)CCCC1 [PCM-0095263] | 2.8 | –
4 | Cc1ccc(C(=O)c2cc(O)c(O)c([N+](=O)[O-])c2)cc1 [PCM-0095576] | 38.1 | –
5 | C=CCc1cccc(/C=N/NC(=O)CN2CCN(Cc3ccccc3)CC2)c1O [PCM-0064890] | 9 | –
6 | COc1ccc2cc1Oc1ccc(cc1)C[C@H]1c3cc(c(OC)cc3CCN1C)Oc1c(O)c(OC)cc3c1[C@@H](C2)N(C)CC3 [PCM-0214869] | 0.8 | –
7 | CC(=O)O[C@@H]1C[C@@H]2CC[C@@]1(C)C2(C)C [PCM-0215932] | -21.4 | –
8 | CCn1cc(-c2ccnc3[nH]c(-c4cccc(CN(C)C)c4)cc23)c(-c2ccc(NC(=O)N(C)C)cc2)n1 [PCM-0095464] | 48.3 | –
9 | CN(C)CC[C@H](CSc1ccccc1)Nc1ccc(S(=O)(=O)NC(=O)c2ccc(N3CCN(Cc4ccccc4-c4ccc(Cl)cc4)CC3)cc2)cc1[N+](=O)[O-] [PCM-0095734] | 19.3 | –
10 | CC(=O)CCc1ccccc1 [PCM-0216622] | -6.9 | –
11 | O=CC[C@@H](O)[C@H](O)[C@H](O)CO [PCM-0214849] | 5.4 | –
12 | Oc1ccc(/C=C/c2cc(O)cc(O)c2)cc1 [PCM-0065629] | 23.3 | –
13 | O=C(/C=C/c1ccccc1)OCc1ccccc1 [PCM-0215962] | 6.9 | –
14 | CSCCNc1nc(SCCC(F)(F)F)nc2c1ncn2[C@@H]1O[C@H](COP(=O)(O)OP(=O)(O)C(Cl)(Cl)P(=O)(O)O)[C@@H](O)[C@H]1O [PCM-0215886] | -50.2 | –
15 | CC(C)c1cc2c(cc1S(=O)(=O)O)[C@@]1(C)CCC[C@@](C)(C(=O)O)[C@@H]1CC2 [PCM-0216123] | 3.9 | –
16 | O=CO [PCM-0216152] | -12.4 | –
17 | CCCCC1=NC2(CCCC2)C(=O)N1Cc1ccc(-c2ccccc2-c2nn[nH]n2)cc1 [PCM-0090383] | 4.3 | –
18 | O=C(O)c1ccc(Br)c(O)c1 [PCM-0216168] | -23.9 | –
19 | COc1cc2c(c(OC)c1OC)-c1c(cc3c(c1OC)OCO3)C[C@H](C)[C@](C)(O)[C@H]2OC(=O)c1ccccc1 [PCM-0216060] | 3.9 | –
20 | c1ccc(CNc2nc(NCc3ccccc3)c3ccccc3n2)cc1 [PCM-0215216] | 10.8 | –
21 | Cc1ncc([N+](=O)[O-])n1CC(O)CCl (stereo not shown) [PCM-0085772] | -3.9 | –
22 | O=P1(NCCCl)OCCCN1CCCl (stereo not shown) [PCM-0086467] | – | -10.3
23 | Cc1ccc(=O)n(-c2ccccc2)c1 [PCM-0064803] | 20.7 | –
24 | O=c1ccc2ccc(O)c(O)c2o1 [PCM-0065041] | 15.9 | –

Row | SMILES | inhibition at 10 µM [1] [%] | inhibition at 10 µM (read-out: BTK inhibition (%)) [%]
25 | CC(O)(P(=O)(O)O)P(=O)(O)O [PCM-0086550] | -27.2 | –
26 | C/C=C(/C)C(=O)O [PCM-0215002] | 14.5 | –
27 | CN(C)Cc1c[nH]c2ccccc12 [PCM-0091332] | -24.9 | –
28 | CCOc1nc2cccc(C(=O)O)c2n1Cc1ccc(-c2ccccc2-c2nn[nH]n2)cc1 [PCM-0086226] | 24.1 | –
29 | C[C@@H]1O[C@@H](OC[C@H]2O[C@@H](Oc3c(-c4ccc(O)c(O)c4)oc4cc(O)cc(O)c4c3=O)[C@H](O)[C@@H](O)[C@@H]2O)[C@H](O)[C@H](O)[C@H]1O [PCM-0087529] | -2.1 | –
30 | CN(C)CC(=O)Nc1ccc2[nH]c(=O)c3ccccc3c2c1 [PCM-0213810] | -7.7 | –
31 | CC(C)NCC(O)c1ccc(NS(C)(=O)=O)cc1 (stereo not shown) [PCM-0065402] | -16.3 | –
32 | Cc1cccc(C)c1NC(=O)c1cc(S(N)(=O)=O)c(Cl)cc1O [PCM-0215998] | 23.2 | –
33 | C[C@H](Cc1cc2c(c(C(N)=O)c1)N(CCCO)CC2)NCCOc1ccccc1OCC(F)(F)F [PCM-0214784] | -12.5 | –
34 | COc1ccc2c(c1OC)CC1c3c(cc4c(c3-2)OCO4)CCN1C (stereo not shown) [PCM-0216450] | 0.8 | –
35 | O=C(Nc1cc(C(F)(F)F)cc(C(F)(F)F)c1)c1cc(Cl)ccc1O [PCM-0095509] | 42.8 | –
36 | O=C(NS(=O)(=O)c1ccc(Br)s1)c1ccc(Cl)cc1Cl [PCM-0095739] | -10 | –
37 | CN[C@H]1C(=O)N[C@@H]2Cc3ccc(cc3)Oc3cc4cc(c3O[C@@H]3O[C@H](C(=O)O)[C@@H](O)[C@H](O)[C@H]3NC(=O)CCCCCCCCC(C)C)Oc3ccc(cc3Cl)[C@@H](O)[C@@H]3NC(=O)[C@H](NC(=O)[C@@H]4NC(=O)[C@@H](NC2=O)c2cc(cc(O)c2Cl)Oc2cc1ccc2O)c1ccc(O)c(c1)-c1c(O[C@H]2O[C@H](CO)[C@@H](O)[C@H](O)[C@@H]2O)cc(O)cc1[C@@H](C(=O)NCCCN(C)C)NC3=O [PCM-0215113] | 73.2 | –
38 | CCc1ccc(/C=C2/SC(=S)NC2=O)cc1 [PCM-0064568] | 46.2 | –
39 | C=C1C[C@@]23CC[C@H]4[C@@](C)(CCC[C@@]4(C)C(=O)O[C@@H]4O[C@H](CO)[C@@H](O)[C@H](O)[C@H]4O)[C@@H]2CC[C@]1(O[C@@H]1O[C@H](CO)[C@@H](O)[C@H](O[C@@H]2O[C@H](CO)[C@@H](O)[C@H](O)[C@H]2O)[C@H]1O[C@@H]1O[C@H](CO)[C@@H](O)[C@H](O)[C@H]1O)C3 [PCM-0215017] | 0.8 | –
40 | COc1ccc2cc([C@H](C)C(=O)O)ccc2c1 [PCM-0000233] | -13.1 | –
41 | COC1CCN(C(=O)c2cc(Cc3n[nH]c(=O)c4ccccc34)ccc2F)CC1 [PCM-0095571] | 10 | –
42 | O=C(C[S+]([O-])C(c1ccccc1)c1ccccc1)NO (stereo not shown) [PCM-0216068] | – | -2.3
43 | CCC(C(=O)O)c1ccc(N2Cc3ccccc3C2=O)cc1 (stereo not shown) [PCM-0215153] | -18.5 | –
44 | CCc1cc2c(cc1CC)CC(NC[C@H](O)c1ccc(O)c3[nH]c(=O)ccc13)C2 [PCM-0095564] | 19.5 | –
45 | NC(=O)c1ccc(OCCCN2CC3CCCC3C2)cc1 (stereo not shown) [PCM-0215865] | 6.2 | –
46 | C[C@H](CCC(=O)NCCS(=O)(=O)O)[C@H]1CC[C@H]2[C@@H]3[C@@H](O)C[C@@H]4C[C@H](O)CC[C@]4(C)[C@H]3CC[C@]12C [PCM-0215517] | 5.4 | –
47 | COc1ccc2c(c1OC)CN1CCc3cc4c(cc3C1C2)OCO4 (stereo not shown) [PCM-0216126] | 13.1 | –
48 | O=C(Nc1cc(Cl)cc(Cl)c1O)c1c(O)c(Cl)cc(Cl)c1Cl [PCM-0215152] | 18.5 | –

Row | SMILES | inhibition at 10 µM [1] [%] | inhibition at 10 µM (read-out: BTK inhibition (%)) [%]
49 | CC(=O)CC/C=C(\C)CC/C=C(\C)CC/C=C(\C)CCC=C(C)C [PCM-0215116] | 2.3 | –
50 | NC(=O)c1cccc(-c2cc(Nc3ccc(OC(F)(F)F)cc3)ncn2)c1 [PCM-0095363] | -37.9 | –
51 | C[C@]12CC[C@@H]3c4ccc(O)cc4CC[C@H]3[C@@H]1CC[C@@H]2O [PCM-0214649] | 4.1 | –
52 | COc1ccc(Cl)cc1C(=O)NCCc1ccc(S(=O)(=O)NC(=O)NC2CCCCC2)cc1 [PCM-0003840] | -65.4 | –
53 | NC(=O)c1cccc(-c2cccc(OC(=O)NC3CCCCC3)c2)c1 [PCM-0095495] | -6.2 | –
54 | CN1CCN(Cc2ccc(Nc3ncc(Cl)c(Nc4ccccc4S(=O)(=O)N(C)C)n3)cc2)CC1 [PCM-0215510] | 67.2 | –
55 | Cn1cc(-c2ccc(S(=O)(=O)n3ccc(/C=C/C(=O)Nc4ccccc4N)c3)cc2)cn1 [PCM-0215419] | 32.4 | –
56 | C1N2CN3CN1CN(C2)C3 [PCM-0086204] | -8.6 | –
57 | CSc1ccc(C(=O)/C=C/c2cc(C)c(OC(C)(C)C(=O)O)c(C)c2)cc1 [PCM-0214917] | 7 | –
58 | COc1cc2ncnc(Nc3cccc(Cl)c3)c2cc1OC [PCM-0012125] | 21.4 | –
59 | C=C1C[C@@]23CC[C@H]4[C@@](C)(CCC[C@@]4(C)C(=O)O[C@@H]4O[C@H](CO)[C@@H](O)[C@H](O)[C@H]4O)[C@@H]2CC[C@]1(O[C@@H]1O[C@H](CO)[C@@H](O)[C@H](O[C@@H]2O[C@H](CO)[C@@H](O)[C@H](O)[C@H]2O)[C@H]1O[C@@H]1O[C@@H](C)[C@H](O)[C@@H](O)[C@H]1O)C3 [PCM-0214859] | -14.8 | –
60 | CC(=O)OCC(=O)[C@@]1(O)CC[C@H]2[C@@H]3CCC4=CC(=O)CC[C@]4(C)[C@@]3(F)[C@@H](O)C[C@@]21C [PCM-0214907] | -8.3 | –
61 | Cc1cc(Nc2nc(N[C@@H](C)c3ccc(F)cc3)c(C#N)cc2F)n[nH]1 [PCM-0095250] | 99.3 | –
62 | COc1cc2c(cc1O)C[C@H]1c3cc(O)c(OC)cc3CC[N@@+]1(C)C2 [PCM-0216444] | -1.5 | –
63 | CCCCC[C@](C)(O)/C=C/[C@@H]1[C@@H](C/C=C\CCCC(=O)O)[C@@H](O)C[C@H]1O [PCM-0216577] | -3.9 | –
64 | O=C(COc1ccc(C(=O)c2ccccc2)cc1)NC1CCN(Cc2ccccc2)CC1 [PCM-0215280] | -33.2 | –
65 | Nc1c(CC(=O)O)cccc1C(=O)c1ccccc1 [PCM-0214756] | -17.2 | –
66 | Cc1c(N)nc([C@H](CC(N)=O)NC[C@H](N)C(N)=O)nc1C(=O)N[C@H](C(=O)N[C@H](C)[C@@H](O)[C@H](C)C(=O)N[C@H](C(=O)NCCc1nc(-c2nc(C(=O)NCCC[S+](C)C)cs2)cs1)[C@@H](C)O)[C@@H](O[C@@H]1O[C@@H](CO)[C@@H](O)[C@H](O)[C@@H]1O[C@H]1O[C@H](CO)[C@@H](O)[C@H](OC(N)=O)[C@@H]1O)c1cnc[nH]1 [PCM-0215181] | 7.7 | –
67 | NCC(O)c1ccc(O)cc1 (stereo not shown) [PCM-0064912] | 2.3 | –
68 | CC(C)(O)CC[C@@H](O)[C@](C)(O)[C@H]1CC[C@@]2(O)C3=CC(=O)[C@@H]4C[C@@H](O)[C@@H](O)C[C@]4(C)[C@H]3CC[C@]12C [PCM-0095305] | 6.2 | –
69 | CC1(C)CC(=O)c2c(C(F)(F)F)nn(-c3ccc(C(N)=O)c(NC4CCC(O)CC4)c3)c2C1 (stereo not shown) [PCM-0214567] | -36.6 | –
70 | CS(=O)(=O)N1CCN(Cc2cc3nc(-c4cccc5[nH]ncc45)nc(N4CCOCC4)c3s2)CC1 [PCM-0094994] | -15.9 | –
